This is an account of results in patent US10751319B2, “Collection device and methods for use” (CRITITECH, INC., priority 2015, dated 2020).

Common to all, as to format: physicochemical
The nature of series [1]: Bulk density. The settings on record: room temperature. As for the experimental part:
The mass of the drug was measured to a nearest 0.1 mg, the volume was determined to the nearest 0.1 mL and the density calculated.

Series [2] in a line: Docetaxel dissolution study, USP Apparatus II (Paddle). As to conditions: methanol/water 15/85, 37° C., pH 7, 75 rpm. As for the experimental part: At 5, 15, 30, 60, 120 and 225 minutes, a 5 mL aliquot was removed, filtered through a 0.22 μm filter, and analyzed on a UV/VIS spectrophotometer at 232 nm. Absorbance values of the samples were compared to those of standard solutions prepared in dissolution media to determine the amount of material dissolved.

The nature of series [3]: BET analysis (surface area). The settings on record: listed as raw paclitaxel. As for the experimental part:
A known mass between 200 and 300 mg of the analyte was added to a 30 mL sample tube. The loaded tube was then mounted to a Porous Materials Inc. SORPTOMETER®, model BET-202A. The automated test was then carried out using the BETWIN® software package and the surface area of each sample was subsequently calculated.

Values joined by “and” are separate entries in the source; they are usually repeats but may differ in a detail not shown here. Identical values can stand only once.

As for `CC(=O)O[C@@]12CO[C@@H]1C[C@H](O)[C@@]1(C)C(=O)[C@H](O)C3=C(C)[C@@H](OC(=O)[C@H](O)[C@@H](NC(=O)OC(C)(C)C)c4ccccc4)C[C@@](O)([C@@H](OC(=O)c4ccccc4)[C@H]21)C3(C)C` [Docetaxel Raw Material, docetaxel], the “Bulk Density” value in series [1] amounted to 0.24 g/mL. Further, the Dissolution was 0.0% in series [2] (0 minutes); 3.2% in series [2] (5 minutes); 6.9% in series [2] (15 minutes); 11% and 11.2% in series [2] (30 minutes); 16.4% in series [2] (60 minutes); 22.4% in series [2] (120 minutes). The molecule further gave a Dissolution in series [2] (225 minutes) of 26.8%.

Molecule `CC(=O)O[C@H]1C(=O)[C@@]2(C)[C@H]([C@H](OC(=O)c3ccccc3)[C@]3(O)C[C@H](OC(=O)[C@H](O)[C@@H](NC(=O)c4ccccc4)c4ccccc4)C(C)=C1C3(C)C)[C@]1(OC(C)=O)CO[C@@H]1C[C@@H]2O` [Paclitaxel Raw Material, paclitaxel] returned a Surface area in series [3] of 7.25 m^2/g. The “Bulk Density” value in series [1] is 0.26 g/mL.
